Source: PMC6724046 (Viruses, 2019)
Where a name gives a salt, the structure may show the parent alone. Read-outs that look alike come from different tables or passages of the source.

Key:
[1] = 50% cytotoxicity concentration (CC50) assay; type: cell-based, Feline; settings: cat
[2] = tested on: CPV; assay: 50% antiviral efficacy concentration (EC50) assay, CPE-based; type: cell-based, Canine parvovirus; settings: F81 cells pretreated 1 h, CPV MOI 0.076, 40 h
[3] = tested on: CPV SD6; assay: Absolute quantitative PCR of CPV VP2 gene copies in infected F81 cells; type: cell-based, Canine parvovirus; settings: 10 μM, 1 mL whole cell lysates, 40 hpi
[4] = tested on: CPV; assay: Immunofluorescence assay (IFA) for VP2 protein in infected F81 cells; type: cell-based, Canine parvovirus; settings: about 30 hpi
[5] = tested on: CPV; assay: Time of addition study (percentage CPE inhibition); type: cell-based, Canine parvovirus; settings: 10 μM; for Percentage CPE inhibition (mean ± s.d.): drug added 1 hour post virus infection, 40 h postinfection
[6] = tested on: F81 cells; assay: Caspase-Glo 3/7 assay in F81 cells with or without CPV infection; type: cell-based, Feline; settings: 10 μM, with or without CPV infection, 4, 8, 12 and 24 hpi
[7] = tested on: CPV variant SD6 (New CPV-2a strain); assay: Western blot of VP2 expression, variant SD6; type: cell-based, Canine parvovirus; settings: 10 μM, SD6, 40 hpi, normalized to 0.1% DMSO-treated group
[8] = tested on: CPV variant SD3 (New CPV-2b strain); assay: Western blot of VP2 expression, variant SD3; type: cell-based, Canine parvovirus; settings: 10 μM, SD3, 40 hpi, normalized to 0.1% DMSO-treated group
[9] = tested on: CPV variant BJ-1 (New CPV-2a strain); assay: Western blot of VP2 expression, variant BJ-1; type: cell-based, Canine parvovirus; settings: 10 μM, BJ-1, 40 hpi, normalized to 0.1% DMSO-treated group
[10] = tested on: CPV SD6 (New CPV-2a strain); assay: CPE-based antiviral inhibitor screening assay; type: cell-based, Canine parvovirus; settings: for anti-CPV effect on F81 cells / Percentage CPE inhibition (mean ± s.d.): 10 μM; for anti-CPV effect on F81 cells: CPE-based screening assay; for Percentage CPE inhibition (mean ± s.d.): cells treated with drug 1 hour prior to virus infection, MOI 0.076, 40 h postinfection
[11] = tested on: F81 cells; assay: 50% cytotoxicity concentration (CC50) assay; type: cell-based, Feline
[12] = tested on: CPV enteritis; design: method as in earlier work; settings: Oseltamivir-treated group; cited from earlier work
[13] = F81 cells, 40 h incubation, read-out: CC50

For `CC(=O)Oc1ccccc1C(=O)Nc1ncc([N+](=O)[O-])s1` [Nitazoxanide], the CC50 at 40 h [1, 13] was 21 µM, the EC50 ([2]; Canine parvovirus) was 2.71 µM and the “CPV viral DNA copy numbers compared with the 0.1% DMSO-treated group” value [3] was 0.07%. For the same molecule, the “CPV infection by IFA (VP2 staining)” value ([4]; 5 μM) was “CPV infection could be inhibited”, the “CPV infection by IFA (VP2 staining)” value ([4]; 10 μM) was “Few cells were CPV-positive” and the “CPV infection by IFA (VP2 staining)” value ([4]; 20 μM) was “Almost no green signals were detected”. The “anti-CPV activity by time of drug addition” value ([5]; drug added 3 h postinfection) was “anti-CPV activity of Nitazoxanide was observed” and the “pro- or antiapoptotic effect (Caspase 3/7 activity)” value (from here on “pro- or antiapoptotic effect”) [6] was “antiapoptotic effects were observed within 12 h”.
In the case of `Cc1cc(C(C#N)c2ccc(Cl)cc2)c(Cl)cc1NC(=O)c1cc(I)cc(I)c1O` (stereo not drawn) [Closantel], the CC50 at 40 h [1] is reported as 13.7 µM, the EC50 ([2]; Canine parvovirus) is reported as 7.77 µM and the “CPV viral DNA copy numbers compared with the 0.1% DMSO-treated group” value [3] is reported as 20.83%. For the same molecule, the “CPV infection by IFA (VP2 staining)” value ([4]; 5 μM) was “CPV infection could be inhibited”, the “CPV infection by IFA (VP2 staining)” value ([4]; 10 μM) was “Few cells were CPV-positive” and the “CPV infection by IFA (VP2 staining)” value ([4]; 20 μM) was “Almost no green signals were detected”. For the same molecule, the “relative expression of VP2” value [7] was 30.1%, the “relative expression of VP2” value [8] was 10.78% and the “relative expression of VP2” value [9] was 14.58%. The “pro- or antiapoptotic effect” value [6] was “no pro- or antiapoptotic effects”.
For `Nc1ccn(C[C@@H](CO)OCP(=O)(O)O)c(=O)n1` [Cidofovir], the “anti-CPV effect on F81 cells” value [10] was “no anti-CPV effects”.
For `Nc1ccn([C@@H]2O[C@H](CO)[C@@H](O)C2(F)F)c(=O)n1` [Gemcitabine], the CC50 [11, 13] was 40 µM, the EC50 [2] was 0.62 µM and the “Percentage CPE inhibition (mean ± s.d.)” value [5] was 42.8 ± 6.13%.
In the case of `Nc1ccn([C@@H]2O[C@H](CO)[C@@H](O)C2(F)F)c(=O)n1` [Gemcitabine HCl], the CC50 [11, 13] is reported as 142 µM and the EC50 ([2]; Canine parvovirus) is reported as 0.68 µM.
With `Cc1cc(C(C#N)c2ccc(Cl)cc2)c(Cl)cc1NC(=O)c1cc(I)cc(I)c1[O-].[Na+]` (stereo not drawn) [Closantel Sodium] the “Percentage CPE inhibition (mean ± s.d.)” value [10] was 69.76 ± 6.06%, the CC50 [11] was 19.1 µM and the EC50 [2] was 6.01 µM. The “CPV viral DNA copy numbers compared with the 0.1% DMSO-treated group” value [3] was 24.04%, the “CPV infection by IFA (VP2 staining)” value ([4]; 5 μM) was “CPV infection could be inhibited” and the “CPV infection by IFA (VP2 staining)” value ([4]; 10 μM) was “Few cells were CPV-positive”. The “CPV infection by IFA (VP2 staining)” value ([4]; 20 μM) was “Almost no green signals were detected”, the “Percentage CPE inhibition (mean ± s.d.)” value [5] was 58.14 ± 7.28% and the “relative expression of VP2” value [7] was 22.50%. The “relative expression of VP2” value [8] was 23.85%, the “relative expression of VP2” value [9] was 12.83% and the “pro- or antiapoptotic effect” value [6] was “no pro- or antiapoptotic effects”.
`Nc1nc(Cl)nc2c1ncn2[C@H]1C[C@H](O)[C@@H](CO)O1` [Cladribine] gave a CC50 at 40 h ([1]; CC50) of 40.2 µM and an EC50 ([2]; Canine parvovirus) of 0.32 µM.
In the case of `CCOC(=O)C1=C[C@@H](OC(CC)CC)[C@H](NC(C)=O)[C@@H](N)C1` [Oseltamivir], the “anti-CPV effect on F81 cells” value [10] is given as “no anti-CPV effects”, the inhibition at 10 µM ([10]; Canine parvovirus, read-out: Percentage CPE inhibition (mean ± s.d.)) is given as 2.13 ± 2.41% and the “weight versus control group” value [12] is given as “significant increase of weight”. For the same molecule, the “white blood cell (WBC) count versus control group” value [12] was “no changes”.
With `O=c1[nH]c(=O)n([C@H]2C[C@H](O)[C@@H](CO)O2)cc1C(F)(F)F` [Trifluridine] the CC50 at 40 h [1] was > 160 µM and the EC50 ([2]; Canine parvovirus) was 9.35 µM.
With `CN1CCC(=C2c3ccccc3CCc3sccc32)CC1.O=C(O)CC(O)C(=O)O` [Pizotifen Malate] the “Percentage CPE inhibition (mean ± s.d.)” value [10] was 29.2 ± 2.72% and the “Percentage CPE inhibition (mean ± s.d.)” value [5] was 26.48 ± 2.91%.
For `Nc1nc2[nH]cc(CCc3ccc(C(=O)N[C@@H](CCC(=O)[O-])C(=O)[O-])cc3)c2c(=O)[nH]1.Nc1nc2[nH]cc(CCc3ccc(C(=O)N[C@@H](CCC(=O)[O-])C(=O)[O-])cc3)c2c(=O)[nH]1.O.O.O.O.O.[Na+].[Na+].[Na+].[Na+]` [Pemetrexed Disodium Hydrate], the “Percentage CPE inhibition (mean ± s.d.)” value [10] was 26.56 ± 2.12% and the “Percentage CPE inhibition (mean ± s.d.)” value [5] was 30.28 ± 5.74%.
